As a reminder, the MIC is the least concentration at which growth counts as inhibited. Low readings indicate inhibition by little substance, high ones a need for much substance.

Among the data in ChEMBL document CHEMBL1153834, “Orally administered combined regimens for treatment of Mycobacterium ulcerans infection in mice” (2007) are MIC, log10cfu and Activity values, retold here.

Assay [1] relates to Mycobacterium ulcerans. Put plainly: Antimycobacterial activity against Mycobacterium ulcerans isolate CU001. It counts as functional.
Assay [2] has as its system Mycobacterium ulcerans. Put plainly: Antimycobacterial activity against Mycobacterium ulcerans isolate CU001 infected in BALB/c mouse left hind foot-pad assessed as bacterial load per culture-positive foot-pad at 100 mg/kg, po administered for 5 days per week measured after 4 weeks. It counts as functional.
Assay [3] deals with Mycobacterium ulcerans. Put plainly: Antimycobacterial activity against Mycobacterium ulcerans isolate CU001 infected in BALB/c mouse left hind foot-pad assessed as bacterial load at 100 mg/kg, po administered for 5 days per week measured after 4 weeks. It counts as functional.
Assay [4] relates to Mycobacterium ulcerans. Put plainly: Antimycobacterial activity against Mycobacterium ulcerans isolate CU001 infected in BALB/c mouse left hind foot-pad assessed as incidence of bacterial infection at 100 mg/kg, po administered for 5 days per week measured after 8 weeks. It counts as functional, organism-based. The arrangement: dose 100 mg/kg.
Assay [5] relates to Mycobacterium ulcerans. Briefly: Antimycobacterial activity against Mycobacterium ulcerans isolate CU001 infected in BALB/c mouse left hind foot-pad assessed as bacterial load at 100 mg/kg, po administered for 5 days per week measured after 8 weeks. It counts as functional.
For assay [6], the system named is Mycobacterium ulcerans. Put plainly: Antimycobacterial activity against Mycobacterium ulcerans isolate CU001 infected in BALB/c mouse left hind foot-pad assessed as bacterial load per culture-positive foot-pad at 10 mg/kg, po administered for 5 days per week measured after 8 weeks. It counts as functional.
The test system of assay [7] is Mycobacterium ulcerans. Put plainly: Antimycobacterial activity against Mycobacterium ulcerans isolate CU001 infected in BALB/c mouse left hind foot-pad assessed as bacterial load per culture-positive foot-pad at 10 mg/kg, po administered for 5 days per week measured after 4 weeks. It counts as functional.
The test system of assay [8] is Mycobacterium ulcerans. Briefly: Antimycobacterial activity against Mycobacterium ulcerans isolate CU001 infected in BALB/c mouse left hind foot-pad assessed as bacterial load at 10 mg/kg, po administered for 5 days per week measured after 4 weeks. It counts as functional.
Assay [9] has as its system Mycobacterium ulcerans. Briefly: Antimycobacterial activity against Mycobacterium ulcerans isolate CU001 infected in BALB/c mouse left hind foot-pad assessed as incidence of bacterial infection at 10 mg/kg, po administered for 5 days per week measured after 8 weeks. It counts as functional, organism-based. Also on record: dose 10 mg/kg.
Assay [10] has as its system Mycobacterium ulcerans. Put plainly: Antimycobacterial activity against Mycobacterium ulcerans isolate CU001 infected in BALB/c mouse left hind foot-pad assessed as bacterial load at 10 mg/kg, po administered for 5 days per week measured after 8 weeks. It counts as functional, organism-based. The arrangement: dose 10 mg/kg.

Each structure is given as a SMILES string. Converted amounts (≈) assume the structure as drawn. The source made the active and inactive calls. The rule behind the calls is not given here.

In turn, `CC[C@H]1OC(=O)[C@H](C)[C@@H](O[C@H]2C[C@@](C)(OC)[C@@H](O)[C@H](C)O2)[C@H](C)[C@@H](O[C@@H]2O[C@H](C)C[C@H](N(C)C)[C@H]2O)[C@](C)(OC)C[C@@H](C)C(=O)[C@H](C)[C@@H](O)[C@]1(C)O` [CLARITHROMYCIN] yielded a minimum inhibitory concentration (MIC) against Mycobacterium ulcerans [1] of 0.5 µg/mL (≈ 0.668 µM). In addition, the log10cfu was determined as 3.43 in the assay with Mycobacterium ulcerans [2], 2.53 in the assay on Mycobacterium ulcerans [3] and 1.25 in the assay on Mycobacterium ulcerans [5]. The outcome in the assay on Mycobacterium ulcerans [4] was Active.

`COc1c(N2C[C@@H]3CCCN[C@@H]3C2)c(F)cc2c(=O)c(C(=O)O)cn(C3CC3)c12` [MOXIFLOXACIN]: the MIC with Mycobacterium ulcerans [1] worked out at 0.25 µg/mL (≈ 0.623 µM). Besides, the log10cfu with Mycobacterium ulcerans [2] stood at 3.23; in the assay with Mycobacterium ulcerans [6] it was 1.72; in the assay with Mycobacterium ulcerans [3], 2.99; with Mycobacterium ulcerans [5], 1.25.

As for `CO[C@H]1/C=C/O[C@@]2(C)Oc3c(C)c(O)c4c(O)c(c(/C=N/N5CCN(C)CC5)c(O)c4c3C2=O)NC(=O)/C(C)=C\C=C\[C@H](C)[C@H](O)[C@@H](C)[C@@H](O)[C@@H](C)[C@H](OC(C)=O)[C@@H]1C` [RIFAMPIN], it took 2 µg/mL (≈ 2.43 µM) to inhibit growth against Mycobacterium ulcerans [1] (MIC). Also, the log10cfu is 1.52 with Mycobacterium ulcerans [7] and 0.46 in the assay with Mycobacterium ulcerans [8]. Besides, the outcome in the assay on Mycobacterium ulcerans [9] and with Mycobacterium ulcerans [10] was Active.

Turning to `CN[C@@H]1[C@H](O[C@H]2[C@H](O[C@H]3[C@H](O)[C@@H](O)[C@H](N=C(N)N)[C@@H](O)[C@@H]3N=C(N)N)O[C@@H](C)[C@]2(O)C=O)O[C@@H](CO)[C@H](O)[C@H]1O` [STREPTOMYCIN], the minimum inhibitory concentration (MIC) in the assay on Mycobacterium ulcerans [1] came to 0.5 µg/mL (≈ 0.86 µM).
